This is an account of results in US8530427B2, “Methods for modulating resistance to apoptosis using KLK6” (Mayo Foundation for Medical Education and Research, priority 2010, dated 2013).

Test [1] has as its system Oli Neu oligodendrocyte cell line. Nature of the test: Oli Neu oligodendrocyte cell death, PI flow cytometry. As to conditions: 0.5 μM; 18 hour exposure. In kind it is cell-based, murine. An excerpt: KLK6 polypeptides promoted the survival of murine oligodendrocytes in a dose dependent fashion. […] Cell death was detected by PI labeling and quantitatively analyzed by flow cytometry.
In general terms: In flow cytometry, cells or beads pass a laser one at a time.

For test [2], the system named is U251 human glioblastoma cell line. Nature of the test: U251 glioblastoma cell death / apoptosis by flow cytometry. In kind it is cell-based. To be noted: 1 μM. Here is the method:
The percent of cells labeled with propidium iodide (PI) after 24 hour exposure to staurosporine (1 μM) shown in histogram (FIG. 15A) was quantified by flow cytometry (FIG. 15B) and is taken as a measure of cell death. All samples were treated and analyzed in triplicate.
Levels of live (Annexin V− and Propidium iodide− (PI−)), early apoptotic (Annexin V+ and PI−), or dead (Annexin V+ and PI+) cells were determined by flow cytometry after a 24 hour period of exposure to 1 μM staurosporine (FIG. 16B) or staurosporine in the presence of 10 μg/mL KLK6 (FIG. 16C).
Dead cells were detected by labeling with 7-AAD. […] All expression data were normalized to the constitutively expressed gene GAPDH (*P<0.05, Students t-test).
KLK6 polypeptides promoted the survival of human glioma cells. […] Cell death was measured by flow cytometric detection of propidium iodide labeling.

The subject of test [3] is murine splenocytes. Nature of the test: Murine splenocyte/lymphocyte cell death, PI labeling by flow cytometry. The class given is cell-based. To be noted: resting conditions; 1 or 10 μg/mL at plating; 24 and 72 hours. An excerpt: The effect of KLK6 polypeptides on immune cell survival was examined using whole splenocyte populations derived from C57BL6/J or PAR1 deficient mice or using the Jurkat T-leukemic cell line (clone E6-1, TIB-152 American Type Culture Collection). Eight to 12 week old C57 mice were obtained from Jackson Laboratories. Mice deficient in PAR1^-/- (B6.129S4-[…]^tm1Ajc/J) were also obtained from Jackson and backcrossed to C57BL6/J for 10 generations such that C57 mice served as wild type controls in each experiment. Spleens were homogenized in RPMI-1640, red blood cells lysed with ammonium chloride buffer, and splenocytes cultured in tissue culture treated 96 well plates at a density of 7.5×10^5 cells/mL. All experiments were performed in serum free X-Vivo media (Lonza, Mapleton, Ill.) containing 2 mM Glutamax, 1 mM sodium pyruvate, 50 U/mL penicillin-streptomycin, 10 mM HEPES, 50 μM 2-β-mercaptoethanol, and 10 μM non-essential amino acids (Invitrogen). Jurkat T cells were maintained in log-phase growth in the same defined media. The cells were maintained at 37° C. in 95% air and 5% CO2. […] Cells were analyzed by flow cytometry using a FACSCalibur flow cytometer (BD Biosciences, Mountain View, Calif.). […] FlowJo software (Ashland, Oreg.) was used to quantify different cell populations in flow cytometry experiments. […]

In test [4] the test system is murine splenocytes. As to the kind of experiment: Splenocyte proliferation, CFSE labeling by flow cytometry. In kind it is cell-based.

Take `CN[C@@H]1C[C@H]2O[C@@](C)([C@@H]1OC)n1c3ccccc3c3c4c(c5c6ccccc6n2c5c31)C(=O)NC4` [staurosporine]: the entries for the “cell death induced by staurosporine” value in test [1] and in test [2] were “shown to promote death of the Oli Neu oligodendrocyte cell line” and “induced a considerable increase in cell death”, respectively.

With “KLK1 polypeptides: recombinant kallikrein family member KLK1, produced in an identical fashion to KLK6”, in the test on murine splenocytes [3], the “cell death / cell survival” value is listed as “did not significantly impact cell survival”. In addition, the “percent of divided cells” value with murine splenocytes [4] (10 μg/mL, 24 hours post-stimulation) is “significant increase in the percent of divided cells”. In the test on murine splenocytes [4] (lower concentrations, or 72 hours post-exposure), the proliferation result was “Significant differences in proliferation were not seen”.
